From patent US20250041215A1, “MULTIDOSE PRESERVATIVE-FREE (MDPF) OPHTHALMIC DOSE DELIVERY WITH ADDITION OF FORMULATION SURFACTANTS” (ALCON INC., priority 2023, published 2025)

Assay: Surface tension of ophthalmic composition with added surfactant (Biolin Sigma 700/701 tensiometer)
Type: physicochemical
Details: surfactant added at 0.1% w/v to ophthalmic composition A or B, FIGS. 4-6

change of surface tension of the ophthalmic composition | change of surface tension of the ophthalmic composition (listed as tyloxapol) | Substance
reduced the surface tension the most | surface tension was lowered | tyloxapol
surface tension was lowered | – | polyoxyl 40 stearate
surface tension was lowered | – | polysorbate 80
